Reference: PMC11597085 (Molecules, 2024)
Where two headings read alike, the source gives them in different places.

Key:
[1] = system: phosphorylated tau (P-tau); experiment: P-tau level ELISA in SH-SY5Y cells; conditions: Homo sapiens, 24 h, read-out: P-tau inhibition
Procedure: SH-SY5Y cells were grown in a complete growth medium comprising Dulbecco’s Modified Eagle Medium (DMEM) supplemented with 10% fetal bovine serum (FBS) and 1% penicillin/streptomycin. For treatment, adherent SH-SY5Y cells were plated in 96-well plates at a density of 2 × 10^6 cells per well. Levosimendan (Sigma, St. Louis, MO, USA) was used as an inhibitor to verify the effect on tau inhibition. Upon treatment with 20 μM of each substance, the cells were cultured for 24 h. The supernatant was then collected and used in subsequent ELISA assays.
The tau levels were assessed using a Human Tau ELISA kit (Abcam, Cambridge, UK). After treatment, the supernatant was diluted five times. The diluted supernatant, capture antibody, and detection antibody were mixed in a 2:1:1 ratio and incubated for 1 h. The wells were then washed three times with a wash buffer. After removing the buffer, 100 µL of 3,3′,5,5′-tetramethylbenzidine developer was added and incubated for 10 min, followed by the addition of 100 µL stop solution. The optical density was measured at 450 nm. Data analysis was performed by calculating the mean and standard deviation using GraphPad Prism 8 (GraphPad, San Diego, CA, USA).

BACE-1 = molecular target: T1, BACE-1 (Homo sapiens, UniProt P56817); experiment: BACE-1 FRET inhibition assay; assay type: biochemical
T1 construct: purchased PanVera Corp. / Thermo Fisher Scientific P2985
Procedure: A BACE-1 inhibition assay was performed using a β-Secretase FRET kit (BACE-1, Thermo Fisher Scientific, San Diego, CA, USA) following the manufacturer’s instructions. […] In black 96-well microplates, 10 µL of the BACE-1 substrate was added to the diluted samples. The reaction was initiated by adding 10 µL of 3× BACE-1 enzyme to each well. The plates were incubated for 60 min at RT in the dark. After incubation, the reaction was stopped by adding 10 µL of 2.5 mM sodium acetate to each well. […] The IC50 value was determined by plotting the relative fluorescence units per hour (RFU/h) against the logarithmic inhibitor concentrations. All experiments were conducted in triplicate.

[2] = Chemical stability in water (10 mM) at 60 °C by HPLC; assay type: physicochemical; conditions: for Chemical stability, Initial (%): HPLC AUC, 0 h set to 100%; for Chemical stability, 24 h / Chemical stability, 48 h / Chemical stability, 76 h / Chemical stability, 164 h / Chemical stability, 330 h: storage at 60 °C, HPLC
Procedure: For this purpose, high-performance liquid chromatography (HPLC) was employed to measure any changes in these species upon storage at 60 °C (Table 1).

[3] = DPPH radical scavenging assay; assay type: biochemical; conditions: methanol, 30 min, RT, dark
Procedure: The mixture was then kept in the dark at RT for 30 min. Afterward, the absorbance was measured at 540 nm.

[4] = molecular target: T2, acetylcholinesterase (AChE) (Electrophorus electricus, UniProt O42275); experiment: biochemical
T2 construct: purchased Sigma-Aldrich C3389
T2 sequence (O42275 24-633): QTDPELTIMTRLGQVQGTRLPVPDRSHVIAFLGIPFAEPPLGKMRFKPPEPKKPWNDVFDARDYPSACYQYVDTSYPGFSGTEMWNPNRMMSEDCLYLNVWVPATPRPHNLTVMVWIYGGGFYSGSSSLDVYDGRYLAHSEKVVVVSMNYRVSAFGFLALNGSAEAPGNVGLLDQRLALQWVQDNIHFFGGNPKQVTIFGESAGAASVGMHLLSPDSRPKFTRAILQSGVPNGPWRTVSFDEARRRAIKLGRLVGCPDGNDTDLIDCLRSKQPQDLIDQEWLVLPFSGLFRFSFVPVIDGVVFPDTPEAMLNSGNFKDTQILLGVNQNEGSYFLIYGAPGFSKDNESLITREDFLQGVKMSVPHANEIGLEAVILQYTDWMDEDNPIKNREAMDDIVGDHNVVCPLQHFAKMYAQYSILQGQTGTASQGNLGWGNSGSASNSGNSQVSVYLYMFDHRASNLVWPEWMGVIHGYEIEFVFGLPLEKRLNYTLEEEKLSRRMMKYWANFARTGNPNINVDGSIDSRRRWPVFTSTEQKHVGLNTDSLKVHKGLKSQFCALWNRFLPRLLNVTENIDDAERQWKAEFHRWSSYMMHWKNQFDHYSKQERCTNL

NLRP3 = NLRP3 ELISA in LPS-induced RAW264.7 cells; assay type: cell-based, murine; conditions: 25 µM (method: 20 µM), LPS 0.5 µg/mL, 24 h
Excerpt: The induced cytokines further contribute to AD pathology by hyperphosphorylation of the tau protein [19]. Additionally, the activation of NLRP3 has been implicated in the pathogenesis of AD [20, 21], and this inflammatory response fosters the generation of Aβ and tau, ultimately contributing to disease progression. Thus, to determine the anti-inflammatory activities of the prepared derivatives, we measured the inhibition of nitrogen oxide (NO) and NLRP3 in LPS-induced RAW264.7 cells. The active concentration for activity assessment was established as 25 µM, at which cell viability had been previously confirmed.
RAW 264.7 macrophages were seeded at a density of 5 × 10^5 cells/well in 96-well plates and treated with 20 µM of RA-Hyd-Me, RA-Hyd-Me-tol, RA-Benzo, and RA-Sali for 1 h and then stimulated with 0.5 μg/mL LPS for 24 h. Culture supernatant levels of NOD-like receptor pyrine domain containing-3 (NLRP3) were determined using a commercially available ELISA kit (Lsbio, Seattle, WA, USA) and following the instructions of the manufacturer. The absorbance of the plate was read at a wavelength of 450 nm. NLRP3 was determined from a standard curve. The concentrations were expressed as ng/mL. To obtain statistical significance, all experiments were carried out in duplicate.

[5] = Stability of Ramalin in water vs deoxygenated water (10 mM, 48 h, 25 °C); assay type: physicochemical
Excerpt: This is evidenced by the increased stability when dissolved in deoxygenated water compared to water containing dissolved oxygen. […] We attempted modifications by introducing a methyl group into phenyl hydrazine to prevent conversion into the azo form or by linking the phenyl group to a benzophenone structure to block electron flow and mitigate oxidation, thereby enhancing stability.

[6] = FRET kit, 60 min, RT, triplicate, read-out: BACE-1 IC50

T1 sequence (P56817 46-501): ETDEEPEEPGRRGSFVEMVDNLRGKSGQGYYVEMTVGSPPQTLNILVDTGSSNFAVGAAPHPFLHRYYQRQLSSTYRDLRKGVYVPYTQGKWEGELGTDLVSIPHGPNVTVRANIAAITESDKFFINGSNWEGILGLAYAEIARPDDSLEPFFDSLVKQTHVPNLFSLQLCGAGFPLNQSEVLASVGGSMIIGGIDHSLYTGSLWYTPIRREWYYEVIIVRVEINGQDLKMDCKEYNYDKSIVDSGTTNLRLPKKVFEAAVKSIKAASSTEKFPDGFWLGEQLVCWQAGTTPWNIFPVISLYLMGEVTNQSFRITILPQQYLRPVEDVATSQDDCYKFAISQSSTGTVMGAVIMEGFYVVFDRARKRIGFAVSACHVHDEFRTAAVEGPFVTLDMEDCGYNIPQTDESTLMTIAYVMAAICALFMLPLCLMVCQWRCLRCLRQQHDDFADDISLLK

Cl.N[C@@H](CCC(=O)NNC(=O)c1ccccc1)C(=O)O [RA-Benzo, N^5-benzamido-L-glutamine hydrochloride]
inhibition at 20 µM [1]: 10 to 15%
IC50 (BACE-1; [6]): 144 ± 87.1 µM
Chemical stability, Initial (%) [2]: 100%
Chemical stability, 24 h [2]: 97.2%
Chemical stability, 48 h [2]: 94.4%
Chemical stability, 76 h [2]: 91.5%
Chemical stability, 164 h [2]: 82.5%
Chemical stability, 330 h [2]: 68.0%

CN(NC(=O)CC[C@H](N)C(=O)O)c1ccccc1 [RA-Hyd-Me, N^5-(methyl(phenyl)amino)-L-glutamine]
inhibition at 20 µM [1]: 10 to 15%
IC50 [3]: 14.4 µM
IC50 (BACE-1): 15.5 ± 5.8 µM
Chemical stability, Initial (%) [2]: 100%
Chemical stability, 24 h [2]: 97.5%
Chemical stability, 48 h [2]: 94.5%
Chemical stability, 76 h [2]: 91.1%
Chemical stability, 164 h [2]: 80.3%
Chemical stability, 330 h [2]: 65.4%

Cc1cccc(N(C)NC(=O)CC[C@H](N)C(=O)O)c1 [RA-Hyd-Me-Tol, N^5-(methyl(m-tolyl)amino)-L-glutamine]
inhibition at 20 µM [1]: 10 to 15%
IC50 [3]: 12.4 µM
IC50 (BACE-1; [6]): 22.5 ± 1.76 µM
Chemical stability, Initial (%) [2]: 100%
Chemical stability, 24 h [2]: 97.5%
Chemical stability, 48 h [2]: 94.6%
Chemical stability, 76 h [2]: 91.0%
Chemical stability, 164 h [2]: 80.0%
Chemical stability, 330 h [2]: 63.4%

Cl.N[C@@H](CCC(=O)NNC(=O)c1ccccc1O)C(=O)O [RA-Sali, N^5-(2-hydroxybenzamido)-L-glutamine hydrochloride]
inhibition at 20 µM [1]: ~40%
IC50 (BACE-1; [6]): 8.44 ± 5.16 µM
inhibition at 50 µM [4]: 7.8%
Chemical stability, Initial (%) [2]: 100%
Chemical stability, 24 h [2]: 99.6%
Chemical stability, 48 h [2]: 96.7%
Chemical stability, 76 h [2]: 93.3%
Chemical stability, 164 h [2]: 82.6%
Chemical stability, 330 h [2]: 69.1%
NLRP3 inhibitory activity (NLRP3): ~ 25%

N[C@@H](CCC(=O)NNc1ccccc1O)C(=O)O [Ramalin, reference compound]
Ramalin remained in deoxygenated water ([5]; deoxygenated water): 92%
Ramalin remained in regular water ([5]; regular water): about 53%
Chemical stability, Initial (%) [2]: 100% ^1
Chemical stability, 24 h [2]: 35.1% ^2
Chemical stability, 48 h [2]: 17.1%
Chemical stability, 76 h [2]: 7.6%
